{"source": "patent US12053480B2", "about": "“Methods and pharmaceutical compositions for treating peripheral demyelinating diseases” (INSERM (INSTITUT NATIONAL DE LA SANTE ET DE LA RECHERCHE …, priority 2015, dated 2024)", "key": {"phospho-c-jun [1]": {"tested_on": "phospho-c-jun", "test": "Immunohistochemistry of nuclear phospho-c-jun in mSC after nerve crush or MJ", "format": "in vivo, mouse", "details": "immunohistochemistry; TRO19622 30 minutes prior crush", "method": "The dissected nerve was washed in L15 medium, fixed in Zamboni's fixative (Stefanini et al., 1967^4) for 10 min at room temperature, washed in PBS, and incubated in successive glycerol baths (15, 45, 60, 66% in PBS) for 18 to 24 h each before freezing at −20° C. The nerves were cut in small pieces in 66% glycerol and the perineurium sheet removed. Small bundles of fibers were teased in double-distilled water on Superfrost slides, dried overnight at room temperature, and the slides stored at −20° C. For immunostaining, the teased fibers were incubated for 1 h at room temperature in blocking solution (10% goat serum, 0.2% TritonX100, and 0.01% sodium azide in PBS). Then, the samples were then incubated with anti-ECCD2 primary mouse antibody (1/100, BD biosciences, Ref. 610181), anti-phosphoS63-c-jun primary mouse antibody (1/200, BD Biosciences, Ref. 558036), anti-c-jun primary mouse antibody (1/200, BD Biosciences, Ref. 610326), anti-VDAC primary rabbit antibody (1/100, Cell Signaling, Ref. 4866) or/and MitoTracker Red (1/1000, Molecular Probes, Ref. M7515) in blocking solution overnight at 4° C. The next day, the samples were washed in PBS and incubated for 1 h at room temperature with secondary donkey antibodies coupled to Alexa488, Alexa 594 or Alexa647 (1/1600, Molecular probes) and TO-PRO-3 iodide (50 μM, Invitroge, Ref. T3605). Finally the samples were washed in PBS and mounted in Immu-mount (Thermo Scientific). Images were acquired at room temperature using a 20× or 40× objective, a Zeiss confocal microscope LSM710, and its associated software.\n(§1) TRO19622 drug (Tocris bioscience, Ref. 2906) was diluted in ethanol to 20 mM and then, the solution was diluted in sterile PBS to 20 μM. TRO19622 treatments were realized by 3 mg/kg intraperitoneal (IP) injections of 20 mM solution or by intra sciatic nerve injections of 2 μl of drug solution 2 μM using a Hamilton syringe or a glass needle in sterile conditions 30 minutes before multiphoton image acquisitions or immunohistochemistry and demyelination studies respectively. Methyl jasmonate drug (Sigma-Aldrich, Ref. 392707) was diluted in 1 ml of sterile PBS to 1M or 3M. Methyl jasmonate treatments were realized by intra sciatic nerve injections of 1 μl of drug solution using a glass needle and micromanipulator in sterile conditions following the same virus injections procedure (see in vivo virus injection in the sciatic nerve method) two hours before multiphoton image acquisition. […] All drug concentrations were previously evaluated by Bordet et al, 2007^5; Goldin et al, 2008^6; Sharov et al, 2007^7.\nTo go further we also selectively silenced VDAC1 in mSC and measured the expression level of nuclear phospho-c-jun by immunohistochemistry after nerve crush. […]"}, "VDAC1": {"target": "T1, VDAC1 (Mus musculus, UniProt Q60932)", "T1 construct": "strongly expressed in mSC mitochondria; from tissue; host or cells: myelinating Schwann cells (mSC) of the sciatic nerve of living mice (wild type; db/db and +/db in A10)", "T1 sequence (Q60932 14-296)": "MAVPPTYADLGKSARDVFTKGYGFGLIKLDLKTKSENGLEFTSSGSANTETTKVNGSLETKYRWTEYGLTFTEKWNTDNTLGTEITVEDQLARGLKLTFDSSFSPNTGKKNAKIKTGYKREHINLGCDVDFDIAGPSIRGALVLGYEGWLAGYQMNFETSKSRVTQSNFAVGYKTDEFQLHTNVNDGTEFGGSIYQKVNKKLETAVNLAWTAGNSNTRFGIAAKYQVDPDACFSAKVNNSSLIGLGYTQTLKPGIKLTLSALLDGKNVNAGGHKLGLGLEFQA", "test": "Cytoplasmic calcium imaging (GCaMP2, multiphoton) in mSC of mouse sciatic nerve", "format": "in vivo", "method": "Mice were anesthetized with isoflurane inhalation and placed under a Stemi2000 microscope (Zeiss). Incision area was shaved and cleaned using betadine solution. After incision, the gluteus superficialis and biceps femoris muscles were separated to reveal the cavity traversed by the sciatic nerve. The nerve was lift out using spatula and a thin glass needle filled with viral solution (8 μl) was introduced into the nerve with a micromanipulator. This solution was injected over 30 min with short pressure pulses using a Picospritzer III (Parker Hannifin) coupled to a pulse generator. After injection, the nerve was replaced into the cavity, the muscles were readjusted, and the wound was closed using clips (for further details see Gonzalez et al., 2014^3).\nas §1\nFirst injected mouse was anesthetized with 5% of isoflurane a 1.5% of oxygen into the anesthesia system box (World Precision Instruments, Ref. EZ-B800) for 5 minutes. Anesthesia controls were realized^8. Then, mouse was placed in anesthesia mask and the incision area was shaved and cleaned with betadine and ethanol 70% solution. Incision was realized using a scalpel and the skin was retracted using forceps in order to expose the gluteus superficialis and bleeps femoris muscles. Next, the connective tissue that connects both muscles was cut and the sciatic nerve was gently lifted out using a spatula. A flexible bridge was slide below sciatic nerve and it was placed into a plastic first pool fixed to the bridge. Mouse was placed under the multiphoton microscope, the bridge was fixed using magnetic brackets to avoid physiological movement and mouse legs were fixed using clippers. Microscope dark box temperature is controlled to 37° C. during all time-lapse imaging. Finally, a second pool was fixed to the first pool using a drop of agarose low melting 3% (Promega, Ref. V2111) in Leibovitz's L15 medium (Gibco Life Technologies) and filled with deionized water to immerse the objectives 20× or 63× (Carl Zeiss Microscopy).\nAll time-lapse images were obtained with a multiphoton microscope Zeiss LSM 7 MP OPO. Mitochondria motility images were acquired by time-lapse recording of one image every five minutes during five hours at 920 nm. GCaMP2 and SypHer probe images were acquired by time-lapse recording of one image every fifteen minutes during five hours at 985 nm. Images were acquired to constant 1% of laser intensity to 100 msec of acquisition time with 512×512 resolution and 10 images of z-stack of 20 μm. Images were saved in Zeiss .czi format and processed using Image J program. For further details see Gonzalez et al., 201X^8\nTo characterize mitochondria physiology during the demyelination process we combined two in vivo methods. We used the nerve crush model to reliably induce demyelination in the mouse sciatic nerve and a viral approach^19 allowing the expression of different fluorescent probes selectively into mitochondria of myelinating Schwann cells (mSC) in mouse sciatic nerve. […]"}, "phospho-c-jun [2]": {"tested_on": "phospho-c-jun", "test": "Immunohistochemistry of phospho-c-jun in mSC of CMT1A rats", "format": "in vivo, rat", "details": "compared to vehicle", "method": "The dissected nerve was washed in L15 medium, fixed in Zamboni's fixative (Stefanini et al., 1967^4) for 10 min at room temperature, washed in PBS, and incubated in successive glycerol baths (15, 45, 60, 66% in PBS) for 18 to 24 h each before freezing at −20° C. The nerves were cut in small pieces in 66% glycerol and the perineurium sheet removed. Small bundles of fibers were teased in double-distilled water on Superfrost slides, dried overnight at room temperature, and the slides stored at −20° C. For immunostaining, the teased fibers were incubated for 1 h at room temperature in blocking solution (10% goat serum, 0.2% TritonX100, and 0.01% sodium azide in PBS). […]\nWhile demyelinating diabetes peripheral neuropathy is a commonly acquired disease, demyelination is also the characteristic feature of a large number of inherited diseases called Charcot-Marie-Tooth diseases (CMT). […] Twelve weeks old CMT1A rats were daily treated with TRO19622 for 15 or 30 days and one day or two months after treatment, we analyzed MAPK demyelination pathways by western blot. […] Then we analyzed phospho-c-jun activation in mSC using immunohistochemistry. […] Next, we measured Schwann cell demyelination and g-ratio by toluidine blue staining on semi-thin sciatic nerve sections and on thin sections using electron microscopy."}}, "data": [{"smiles": "CC(C)CCC[C@@H](C)[C@H]1CC[C@H]2[C@@H]3CCC4=C/C(=N\\O)CC[C@]4(C)[C@H]3CC[C@]12C", "note": "[TRO19622, (NZ)—N-[(8S,9S,10R,13R,14S,17R)-10,13-dimethyl-17-[(2R)-6-methylheptan-2-yl]-1,2,6,7,8,9,11,12,14,15,16,17-dodecahydrocyclopenta[a]phenanthren-3-ylidene]hydroxylamine]", "values": [{"measurement": "nuclear phospho-c-jun in mSC after nerve crush", "setting": "phospho-c-jun [1]", "result": "strongly reduced"}, {"measurement": "part of the calcium appearing in the cytoplasm after nerve crush that is not abolished (non-mitochondrial origin)", "setting": "VDAC1; after nerve crush with VDAC1 silenced or blocked", "result": 13, "unit": "%"}, {"measurement": "presence of cytoplasmic calcium in mSC after crush", "setting": "VDAC1; cytoplasmic GCaMP2, after nerve crush", "result": "strong reduction"}, {"measurement": "phospho-c-jun amount in the mSC nucleus", "setting": "phospho-c-jun [2]", "result": "strongly reduced"}]}]}
